Data: paper PMC10552397 (Cell Communication and Signaling : CCS, 2023)

Key:
Assay type in all cases: cell-based
HeLa GRASP55 KO cells = test: Transmission electron microscopy of Golgi apparatus, HeLa GRASP55 KO; details: 100 nM, 24 h, HeLa GRASP55 KO (also wt)
Procedure: HeLa wt and HeLa GRASP55 KO cells were seeded into 10 cm dishes. […] After treatment, cells were washed with Dulbecco´s phosphate-buffered saline (DPBS, Thermo Fisher Scientific, Waltham, MA, USA, #14,190,250) and then fixed using 2.5% glutaraldehyde and 4% paraformaldehyde in 0.1 M sodium cacodylate, pH 7.4 overnight at 4 °C. Then, cells were harvested with a cell scraper and centrifuged at 4,000 × g for 5 min. Cell pellets were washed twice with 0.1 M sodium cacodylate buffer, pH 7.2, then heated to 40 °C and embedded into 3% low melting agarose. The agarose was dissolved at 40 °C in a water bath and after aspiration of the supernatant a volume of approximately 10 µL was left, which was resuspended in agarose. After centrifugation at approximately 4,000 x g for 2 min, the samples were covered with 1% OsO4 in 0.1 M sodium cacodylate buffer for 60 min at RT. After washing two times with sodium cacodylate buffer for 10 min and twice with 70% EtOH for 15 min at RT, block contrast was applied using 1% uranyl acetate/1% phosphorotungstic acid in 70% EtOH (freshly prepared and filtered) for 1 h at RT. The samples were dehydrated in a graded ethanol series (90% EtOH, 96% EtOH, 100% EtOH) and embedded in SPURR epoxy resin (Serva, Heidelberg, Germany, #21,050). After polymerization at 70 °C for 24 h, 70 nm ultrathin sections were cut using an Ultracut EM UC7 (Leica, Wetzlar, Germany). […]

HeLa wt cells [1] = test: BFA washout assay (Golgi reassembly, TGN46 and B4GALT1 staining); details: 120 min washout
Procedure: For BFA washout assays, HeLa wt cells were seeded on glass coverslips in 24-well plates. […] After 24 h, the treatment medium was removed, cells were washed once with DPBS and then treated with 5 µg/mL BFA or 0.1% DMSO as a control for 2 h. Cells were then washed with DPBS four times and incubated with fresh culture medium for 0/15/30/45/60/120 min. After the respective BFA washout time, cells were fixed in ice-cold methanol for 15 min on ice, washed three times with DPBS and blocked in 3% BSA (Roth, Karlsruhe, Germany, #8076) overnight. Samples were incubated with primary antibodies diluted in 3% BSA for 2 h and then washed three times with DPBS, incubated with the appropriate secondary antibodies diluted in 3% BSA for 30 min and washed three times with DPBS. Afterwards, cells were embedded in ProLong Glass Antifade Mountant (Thermo Fisher Scientific, Waltham, MA, USA, #P36980) containing 1 µg/mL DAPI (Roth, Karlsruhe, Germany, #6335.1). Images were recorded with an Axio Observer 7 fluorescence microscope (Carl Zeiss Microscopy, Oberkochen, Germany) using a 40x/1,4 Oil DIC M27 Plan-Apochromat objective (Carl Zeiss Microscopy, Oberkochen, Germany) and an ApoTome 2 (Carl Zeiss Microscopy, Oberkochen, Germany).

HeLa wt cells [2] = test: Immunoblot of LC3-II and SQSTM1 (autophagic flux); details: 100 nM, 6 h
Procedure: For SDS PAGE and western blotting, cells were harvested by scraping, pelletized at 150 rcf and 4 °C for 5 min, washed with DPBS and quickly frozen in liquid nitrogen. Cells were lysed in lysis buffer (20 mM Tris–HCl, 150 mM NaCl, 500 µM EDTA, 1% [v/v] Triton X-100, 1 mM Na3VO4, 10 mM NaF, 2.5 mM Na4P2O7, 1X protease inhibitor cocktail [Roche, Basel, Switzerland, #4693132001]) for 30 min on ice and the lysates were cleared by centrifugation at 18,000 rcf and 4 °C for 15 min. Protein concentration was determined by Bradford assay and sample buffer was added (62.5 mM Tris, 8.6% [v/v] glycerol, 2% [w/v] SDS, 33.3 µg/mL bromophenol blue, 1% [v/v] β-mercaptoethanol). […] For CETSA analysis of TPP-TR samples, the protein concentration was determined by Pierce 660 nm Protein Assay and the protein concentration of the 36.5 °C treated sample of each treatment and replicate was used for the other nine samples of the respective sample set to display temperature-dependent total protein aggregation and precipitation. […] After separation by SDS-PAGE, proteins were transferred to PVDF membranes (Merck, Darmstadt, Germany, #IPFL00010), blocked with 5% milk powder in TBST and analyzed using the indicated primary antibodies followed by appropriate IRDye 800- or IRDye 680-conjugated secondary antibodies (LI-COR Biosciences, Lincoln, NE, USA). […]

In the case of `CCCCCC1=C/C(=C/c2[nH]c(-c3ccc[nH]3)cc2OC)N=C1C` [Prodigiosin, prodigiosin], the “Golgi apparatus morphology (TEM)” value (HeLa GRASP55 KO cells) is reported as “Severe structural changes of the Golgi apparatus”, the “Golgi reassembly during BFA washout” value (HeLa wt cells [1]; 10 nM pre-treatment 24 h) is reported as “fully reformed Golgi complex” and the “Golgi reassembly during BFA washout” value (HeLa wt cells [1]; 100 nM pre-treatment 24 h) is reported as “severely disturbed Golgi reassembly”. For the same molecule, the LC3-II level (HeLa wt cells [2]) was “accumulated” and the “starvation-induced degradation of SQSTM1” value (HeLa wt cells [2]; EBSS) was “blocked”.
